Source: ChEMBL document CHEMBL1159354, “Sphingolipids from Bombycis Corpus 101A and their neurotrophic effects” (J Nat Prod, 2003)
Calls of active or inactive are those of the source. The rule behind the calls is not given here.

Legend:
PC-12 [1] = test: Induction of neurite outgrowth in rat PC12 cells assessed as neurite length at 10 uM; assay type: functional, cell-based
PC-12 [2] = test: Induction of neurite outgrowth in rat PC12 cells assessed as neurite length; assay type: functional, cell-based

How did the Activity (PC-12 [1]) turn out when `CCCCCCC/C=C/C=C/[C@@H](O)[C@H](CO)NC(=O)CCCCCCCCCCCCCCCCCCC` was run?
The Activity was “Active”.

How did the Activity (PC-12 [1]) turn out when `CCCCCCC/C=C/C=C/[C@@H](O)[C@H](CO)NC(=O)CCCCCCCCCCCCCCCCCCCCC` was run?
The Activity was “Active”.

How did the Activity (PC-12 [2]) turn out when `CCCCCCCCC/C=C/[C@@H](O)[C@H](CO)NC(=O)CCCCCCCCCCCCCCCCCCC` was run?
The Activity was “Active”.

Which Activity (PC-12 [2]) does the source give for `CCCCCCCCC/C=C/[C@@H](O)[C@H](CO)NC(=O)CCCCCCCCCCCCCCCCC` here?
Its Activity is “Active”.
